Measured values as given in the supplement of paper PMC5908809.

Tests used:
[1] = system: normal NK cells expanded with K562-aAPC; assay: percent inhibition of viability; higher = more inhibition; conditions: 72 h, IL-2 2.5 ng/mL
Procedure: (§1)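 Drug sensitivity and resistance testing on K562-aAPC-expanded normal NK cells: 5 concentrations (10-fold steps over a 10,000-fold range), 72 h at 37 °C, viability by CellTiter-Glo normalised to DMSO and benzethonium chloride controls; DSS from the fitted curve.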

[2] = system: normal NK cells expanded with K562-aAPC; assay: drug sensitivity score (DSS) (DSS units); higher = more sensitive; extreme values may be limits of the assay; conditions: 72 h; IL-2 2.5 ng/mL
Procedure: as §1

NK-YS (IL-2 2.5 ng/mL) [3] = assay: percent inhibition of viability; higher = more inhibition; conditions: 72 h
KHYG-1 (IL-2 2.5 ng/mL) [4] = assay: as above; conditions: 72 h
KAI3 (IL-2 2.5 ng/mL) [5] = assay: as above; conditions: 72 h
SNK-6 (IL-2 2.5 ng/mL) [6] = assay: as above; conditions: 72 h
[7] = system: normal primary NK cells, pool 1 (3 donors), resting (IL-2 0 ng/mL); assay: as above; conditions: 72 h
NKL (IL-2 2.5 ng/mL) [8] = assay: as above; conditions: 72 h
[9] = system: normal primary NK cells, pool 3 (3 donors) (IL-2 2.5 ng/mL); assay: as above; conditions: 72 h
IMC-1 (IL-2 20 ng/mL) [10] = assay: as above; conditions: 72 h
[11] = system: normal primary NK cells, pool 2 (3 donors) (IL-2 2.5 ng/mL); assay: as above; conditions: 72 h
DERL-7 (IL-2 2.5 ng/mL) [12] = assay: as above; conditions: 72 h
YT (IL-2 2.5 ng/mL) [13] = assay: as above; conditions: 72 h
NK-92 (IL-2 2.5 ng/mL) [14] = assay: as above; conditions: 72 h
[15] = system: normal primary NK cells, pool 1 (3 donors) (IL-2 2.5 ng/mL); assay: as above; conditions: 72 h
NK-YS (IL-2 2.5 ng/mL) [16] = assay: drug sensitivity score (DSS) (DSS units); higher = more sensitive; extreme values may be limits of the assay; conditions: 72 h
KHYG-1 (IL-2 2.5 ng/mL) [17] = assay: as above; conditions: 72 h
KAI3 (IL-2 2.5 ng/mL) [18] = assay: as above; conditions: 72 h
SNK-6 (IL-2 2.5 ng/mL) [19] = assay: as above; conditions: 72 h
[20] = system: normal primary NK cells, pool 1 (3 donors), resting (IL-2 0 ng/mL); assay: as above; conditions: 72 h
NKL (IL-2 2.5 ng/mL) [21] = assay: as above; conditions: 72 h
[22] = system: normal primary NK cells, pool 3 (3 donors) (IL-2 2.5 ng/mL); assay: as above; conditions: 72 h
IMC-1 (IL-2 20 ng/mL) [23] = assay: as above; conditions: 72 h
[24] = system: normal primary NK cells, pool 2 (3 donors) (IL-2 2.5 ng/mL); assay: as above; conditions: 72 h
DERL-7 (IL-2 2.5 ng/mL) [25] = assay: as above; conditions: 72 h
YT (IL-2 2.5 ng/mL) [26] = assay: as above; conditions: 72 h
NK-92 (IL-2 2.5 ng/mL) [27] = assay: as above; conditions: 72 h
[28] = system: normal primary NK cells, pool 1 (3 donors) (IL-2 2.5 ng/mL); assay: as above; conditions: 72 h

COc1cc([C@@H]2c3cc4c(cc3[C@@H](O[C@@H]3O[C@@H]5CO[C@@H](c6cccs6)O[C@H]5[C@H](O)[C@H]3O)[C@H]3COC(=O)[C@H]23)OCO4)cc(OC)c1O [Teniposide] (max concentration tested 10000 nM)
percent inhibition of viability [%]
Conditions	1 nM	10 nM	100 nM	1000 nM	10000 nM
DERL-7 (IL-2 2.5 ng/mL) [12]	5.54	34.5	94.9	80.3	99.3
IMC-1 (IL-2 20 ng/mL) [10]	-1.21	18.8	95.9	99.6	99
KAI3 (IL-2 2.5 ng/mL) [5]	-5.63	32.8	80.1	75.3	92.2
KHYG-1 (IL-2 2.5 ng/mL) [4]	1.47	13.1	91.5	102	94.4
NK-92 (IL-2 2.5 ng/mL) [14]	-21.1	0.94	59.8	99.7	90.3
NK-YS (IL-2 2.5 ng/mL) [3]	4.54	29.4	82.5	79.9	75.7
NKL (IL-2 2.5 ng/mL) [8]	0.79	49.3	98.3	98.7	89.8
SNK-6 (IL-2 2.5 ng/mL) [6]	5.23	16.8	78.2	95.8	94.7
YT (IL-2 2.5 ng/mL) [13]	0.75	-4.25	36.1	95.3	91.5
[1]	-1.49	7.42	51.3	59.8	99.4
[7]	-23.6	-9.41	27.9	90.8	91.2
[9]	-13.8	-4.37	3.23	36.7	97
[11]	-11.9	-5.76	2.6	48.4	93.9
[15]	2.23	-5.23	11.2	66.3	96.6

Conditions	drug sensitivity score
DERL-7 (IL-2 2.5 ng/mL) [25]	33.5
IMC-1 (IL-2 20 ng/mL) [23]	32.6
KAI3 (IL-2 2.5 ng/mL) [18]	29.9
KHYG-1 (IL-2 2.5 ng/mL) [17]	30.9
NK-92 (IL-2 2.5 ng/mL) [27]	25
NK-YS (IL-2 2.5 ng/mL) [16]	29.3
NKL (IL-2 2.5 ng/mL) [21]	36.2
SNK-6 (IL-2 2.5 ng/mL) [19]	28.5
YT (IL-2 2.5 ng/mL) [26]	22.1
[2]	18.8
[20]	20.6
[22]	10.1
[24]	11
[28]	14

Cc1cc(C(C)Nc2ccccc2)c2nc(N3CCOCC3)cc(=O)n2c1 (stereo not drawn) [TGX-221] (max concentration tested 10000 nM)
percent inhibition of viability [%]
Conditions	1 nM	10 nM	100 nM	1000 nM	10000 nM
DERL-7 (IL-2 2.5 ng/mL) [12]	0.96	-2.74	-1.99	1.82	27.4
IMC-1 (IL-2 20 ng/mL) [10]	-6.36	-5.05	-4.93	-4.5	-0.86
KAI3 (IL-2 2.5 ng/mL) [5]	-3.13	-6.25	-6.02	4.84	23.6
KHYG-1 (IL-2 2.5 ng/mL) [4]	2.88	11.7	4.06	7.54	14.4
NK-92 (IL-2 2.5 ng/mL) [14]	2.02	4.62	5.66	32.2	31.8
NK-YS (IL-2 2.5 ng/mL) [3]	-2.78	-1.69	-1.28	2.25	27.1
NKL (IL-2 2.5 ng/mL) [8]	2.96	0.41	10.3	15.5	28
SNK-6 (IL-2 2.5 ng/mL) [6]	31	21.5	15.7	15.3	-7.08
YT (IL-2 2.5 ng/mL) [13]	-1.99	2.32	1.97	11.6	28.1
[1]	-0.66	0.04	5.39	4.41	32.4
[7]	-4.4	0.78	-11.3	14.5	51.2
[9]	-7.93	-8.91	-2.84	3.04	11.7
[11]	-16.6	-10.3	-4.51	4.63	29.4
[15]	-13.5	-0.76	-6.33	4.04	29.7

Conditions	drug sensitivity score
DERL-7 (IL-2 2.5 ng/mL) [25]	1.37
IMC-1 (IL-2 20 ng/mL) [23]	0
KAI3 (IL-2 2.5 ng/mL) [18]	1.55
KHYG-1 (IL-2 2.5 ng/mL) [17]	0
NK-92 (IL-2 2.5 ng/mL) [27]	6.45
NK-YS (IL-2 2.5 ng/mL) [16]	1.43
NKL (IL-2 2.5 ng/mL) [21]	2.96
SNK-6 (IL-2 2.5 ng/mL) [19]	0
YT (IL-2 2.5 ng/mL) [26]	2.28
[2]	2.2
[20]	4.9
[22]	0.14
[24]	2
[28]	1.93
